ChEMBL document CHEMBL3108668, “Antitumor activity of jujuboside B and the underlying mechanism via induction of apoptosis and autophagy” (J Nat Prod, 2014)
Calls of active or inactive are those of the source. The calls are words filed in the database; no cut-off is given here.

Legend:
AGS [1] = experiment: Induction of apoptosis in human AGS cells assessed as procaspase-9 level at 25 to 150 uM after 24 hrs by Western blotting analysis; type: functional, cell-based
AGS [2] = experiment: Induction of apoptosis in human AGS cells assessed as increase in pJNK level at 25 to 150 uM after 24 hrs by Western blotting analysis; type: functional, cell-based
HCT-116 [3] = experiment: Antitumor activity against human HCT116 cells xenografted in BALB/c nude mouse assessed as reduction of Ki-67 expression at 40 mg/kg, ip administered 3 times a week for 5 weeks by immunohistochemical analysis; type: functional, organism-based; set-up: dose 40 mg/kg
AGS [4] = experiment: Induction of autophagy in human AGS cells assessed as massive vacuole formation at 50 uM after 24 hrs by acridine orange staining-based fluorescence microscopy in presence of bafilomycin A1; type: functional, cell-based
[5] = Cytotoxicity against human Chang cells after 24 hrs by MTT assay; type: cell-based
HCT-116 [6] = experiment: Induction of apoptosis in human HCT116 cells assessed as formation of apoptotic bodies at >100 uM after 24 hrs by acridine orange staining-based microscopy; type: functional, cell-based
AGS [7] = experiment: Cell cycle arrest in human AGS cells assessed as accumulation at sub G1 phase at 200 uM after 24 hrs by propidium iodide staining-based flow cytometry; type: functional
HCT-116 [8] = experiment: Induction of apoptosis in human HCT116 cells assessed as cell rounding at >100 uM after 24 hrs by acridine orange staining-based microscopy; type: functional
HCT-116 [9] = experiment: Induction of apoptosis in human HCT116 cells assessed as necrotic cells at 100 uM after 24 hrs by annexin V-FITC/propidium iodide staining-based flow cytometry (reference value: 0.68%); type: functional
AGS [10] = experiment: Induction of apoptosis in human AGS cells assessed as caspase-3 activation after 24 hrs by Western blotting analysis; type: functional, cell-based
HCT-116 [11] = experiment: Induction of autophagy in human HCT116 cells assessed as increase in LC3-2 level at 50 uM after 24 hrs by Western blotting analysis; type: functional, cell-based
AGS [12] = experiment: Induction of apoptosis in human AGS cells assessed as reduction of caspase8 activation at 100 uM after 24 hrs by Western blotting analysis in presence of SP600125; type: functional, cell-based
HCT-116 [13] = experiment: Induction of apoptosis in human HCT116 cells assessed as early apoptotic cells at 150 uM after 24 hrs by annexin V-FITC/propidium iodide staining-based flow cytometry (reference value: 3.61%); type: functional
AGS [14] = experiment: Cytotoxicity against human AGS cells at 100 uM after 24 hrs by MTT assay in presence of bafilomycin A1; type: functional, cell-based
HCT-116 [15] = experiment: Induction of apoptosis in human HCT116 cells assessed as early apoptotic cells at 25 uM after 24 hrs by annexin V-FITC/propidium iodide staining-based flow cytometry (reference value: 3.61%); type: functional
HCT-116 [16] = experiment: Induction of apoptosis in human HCT116 cells assessed as late apoptotic cells at 150 uM after 24 hrs by annexin V-FITC/propidium iodide staining-based flow cytometry (reference value: 2.71%); type: functional
AGS [17] = experiment: Induction of apoptosis in human AGS cells assessed as caspase-9 activation at 25 to 150 uM after 24 hrs by Western blotting analysis; type: functional, cell-based
AGS [18] = experiment: Cell cycle arrest in human AGS cells assessed as accumulation at sub G1 phase at 100 uM after 24 hrs by propidium iodide staining-based flow cytometry in presence of bafilomycin A1; type: functional
AGS [19] = experiment: Induction of autophagy in human AGS cells assessed as massive vacuole formation at 50 uM after 24 hrs by fluorescence microscopy; type: functional, cell-based
HCT-116 [20] = experiment: Induction of apoptosis in human HCT116 cells assessed as late apoptotic cells at 25 uM after 24 hrs by annexin V-FITC/propidium iodide staining-based flow cytometry (reference value: 2.71%); type: functional
AGS [21] = experiment: Induction of apoptosis in human AGS cells assessed as cell shrinkage at >100 uM after 24 hrs by acridine orange staining-based microscopy; type: functional
AGS [22] = experiment: Induction of apoptosis in human AGS cells assessed as formation of apoptotic bodies at >100 uM after 24 hrs by acridine orange staining-based microscopy; type: functional, cell-based
AGS [23] = experiment: Induction of apoptosis in human AGS cells assessed as early apoptotic cells at 100 uM after 24 hrs by annexin V-FITC/propidium iodide staining-based flow cytometry (reference value: 6.6%); type: functional
AGS [24] = experiment: Induction of apoptosis in human AGS cells assessed as apoptotic cells at 150 uM after 24 hrs by annexin V-FITC/propidium iodide staining-based flow cytometry; type: functional
AGS [25] = experiment: Induction of apoptosis in human AGS cells assessed as increase in pJNK level at 100 uM after 24 hrs by Western blotting analysis in presence of bafilomycin A1; type: functional, cell-based
AGS [26] = experiment: Induction of apoptosis in human AGS cells assessed as PARP-1 cleavage after 24 hrs by Western blotting analysis; type: functional, cell-based
HCT-116 [27] = experiment: Induction of apoptosis in human HCT116 cells assessed as membrane blebbing at >100 uM after 24 hrs by acridine orange staining-based microscopy; type: functional, cell-based
HCT-116 [28] = experiment: Cytotoxicity against human HCT116 cells after 24 hrs by MTT assay; type: functional, cell-based
AGS [29] = experiment: Induction of apoptosis in human AGS cells assessed as decrease in pERK level at 25 to 150 uM after 24 hrs by Western blotting analysis; type: functional, cell-based
AGS [30] = experiment: Induction of apoptosis in human AGS cells assessed as necrotic cells at 25 uM after 24 hrs by annexin V-FITC/propidium iodide staining-based flow cytometry (reference value: 0.12%); type: functional
AGS [31] = experiment: Induction of apoptosis in human AGS cells assessed as cell rounding at >100 uM after 24 hrs by acridine orange staining-based microscopy; type: functional
HCT-116 [32] = experiment: Induction of apoptosis in human HCT116 cells assessed as early apoptotic cells at 50 uM after 24 hrs by annexin V-FITC/propidium iodide staining-based flow cytometry (reference value: 3.61%); type: functional
AGS [33] = experiment: Induction of apoptosis in human AGS cells assessed as late apoptotic cells at 25 uM after 24 hrs by annexin V-FITC/propidium iodide staining-based flow cytometry (reference value: 7.3%); type: functional
AGS [34] = experiment: Induction of apoptosis in human AGS cells assessed as necrotic cells at 50 uM after 24 hrs by annexin V-FITC/propidium iodide staining-based flow cytometry (reference value: 0.12%); type: functional
AGS [35] = experiment: Induction of apoptosis in human AGS cells assessed as apoptotic cells at 100 uM after 24 hrs by annexin V-FITC/propidium iodide staining-based flow cytometry; type: functional
AGS [36] = experiment: Induction of apoptosis in human AGS cells assessed as early apoptotic cells at 150 uM after 24 hrs by annexin V-FITC/propidium iodide staining-based flow cytometry (reference value: 6.6%); type: functional
AGS [37] = experiment: Induction of apoptosis in human AGS cells assessed as apoptotic cells at 50 uM after 24 hrs by annexin V-FITC/propidium iodide staining-based flow cytometry; type: functional
AGS [38] = experiment: Induction of autophagy in human AGS cells assessed as increase in LC3-2 level at 50 uM after 24 hrs by Western blotting analysis; type: functional, cell-based
HCT-116 [39] = experiment: Induction of apoptosis in human HCT116 cells assessed as necrotic cells at 50 uM after 24 hrs by annexin V-FITC/propidium iodide staining-based flow cytometry (reference value: 0.68%); type: functional

In the case of `CC(C)=C[C@H]1C[C@](C)(O)[C@@H]2[C@H]3CC[C@@H]4[C@@]5(C)CC[C@H](O[C@@H]6OC[C@H](O)[C@H](O[C@@H]7O[C@H](CO)[C@@H](O)[C@H](O)[C@H]7O[C@@H]7OC[C@@H](O)[C@H](O)[C@H]7O)[C@H]6O[C@@H]6O[C@@H](C)[C@H](O)[C@@H](O)[C@H]6O)C(C)(C)[C@@H]5CC[C@@]4(C)[C@@]34CO[C@@]2(C4)O1`, the Activity (AGS [1]) is reported as “inactive”, the Activity (AGS [2]) is reported as “Active” and the Activity (HCT-116 [3]) is reported as “Active”. The Activity (AGS [4]) was “inactive”, the IC50 [5] was 182 µM and the Activity (HCT-116 [6]) was “Active”. For the same compound, the Activity (AGS [7]) was 49.65%, the Activity (HCT-116 [8]) was “Active” and the Activity (HCT-116 [9]) was 3.05%. The Activity (AGS [10]) was “Dose-dependent effect”, the Activity (HCT-116 [11]) was “Active” and the Activity (AGS [12]) was “inactive”. The Activity (HCT-116 [13]) was 43.39%, the Activity (AGS [14]) was “Active” and the Activity (HCT-116 [15]) was 2.64%. For the same compound, the Activity (HCT-116 [16]) was 17.9%, the Activity (AGS [17]) was “inactive” and the Activity (AGS [18]) was “Active”. The Activity (AGS [19]) was “Active”, the Activity (HCT-116 [20]) was 1.67% and the Activity (AGS [21]) was “Active”. The Activity (AGS [22]) was “Active”, the Activity (AGS [23]) was 16.41% and the Activity (AGS [24]) was 39.55%. For the same compound, the Activity (AGS [25]) was “Active”, the Activity (AGS [26]) was “Dose-dependent effect” and the Activity (HCT-116 [27]) was “Active”. The Activity (HCT-116 [28]) was “Dose-dependent effect”, the IC50 (HCT-116 [28]; HCT-116, 24 h) was 114 µM and the Activity (AGS [29]) was “inactive”. For the same compound, the Activity (AGS [30]) was 0.55%, the Activity (AGS [31]) was “Active” and the Activity (HCT-116 [32]) was 6.65%. For the same compound, the Activity (AGS [33]) was 5.24%, the Activity (AGS [34]) was 0.53% and the Activity (AGS [35]) was 28.85%. The Activity (AGS [36]) was 27.43%, the Activity (AGS [37]) was 15.78% and the Activity (AGS [38]) was “Active”. It also gave an Activity (HCT-116 [39]) of 0.5%.
